{"source": "patent US4835185A", "about": "“Immunomodulator for improving commercial performance of domestic animals” (Iowa State University Research Foundation, Inc., priority 1987, dated 1989)", "key": {"[1]": {"test_system": "cholesterol in lean tissue and plasma", "test": "Lamb trials: cholesterol in lean tissue and plasma", "type": "in vivo, lambs (sheep)", "from_the_text": "(§1) The lambs used in Trial 1 consisted of medium-frame crossbred wethers and ewes weighing 26 to 31 kg. The lambs used in Trial 2 consisted of medium-framced crossbred rams weighing 18 to 25 kg. Each animal was raised as a single. The lambs were housed in a temperature controlled room in individual pens with nipple waterers. When received, the lamps were vaccinated for enterotoxemia. They were allowed to adjust to the pens and the environment for 10 days. One day before the trial began, the lambs were sheared and placed on their respective dietary treatments. The lamps were allotted blocking by weight and sex into two dietary treatment groups. Growth and feed consumption were measured bi-weekly. All lamb weights were taken after a 12 to 16 hour fast. The animals were slaughtered at 50 kg in the Iowa State University Meat laboratory facilities at Ames, Iowa. At slaughter, the lamb's internal organs and wool were weighed and sampled, loin eye area and back fat measured, and carcasses separated into fat, lean, and bone.\n(§2) The SMB (soybean meal-containing) and the CGM (corn-gluten-containing) diets (compositions given in Table A) were fed twice per day in quantities ensuring that feed was before the lambs at all times. The diets were calculated to be equivalent to each other with respect to metabolizable protein, ether extract, fiber, and minerals with the exception of calcium and phosphorus. […] The CGM diet was calculated to contain slightly more energy (TDN 81.7 vs. 79.0, NEm 1.88 v. 1.86, Neg. 1.23 vs. 1.22). […] The soybean meal ingredient contained about 3.5 wt % leucine, while the corn gluten meal ingredient contained about 15 wt % leucine. The CGM diet was therefore higher in leucine than the SBM diet, containing an estimated 16 wt % leucine as compared with an estimated 8 wt % leucine based on total crude protein in the diet.\n^(8) Amount of cholesterol in lean tissue (ng/mg) and plasma (ng/ml).\n(§3) ^(1)- (8) See Table B, except cholesterol data is for lean tissue"}, "[2]": {"test": "Lamb trials: growth, feed efficiency, wool and carcass", "type": "in vivo, lambs (sheep)", "from_the_text": "as §1, §2\n^(1) Feed ingredients given on wt % basis.\n^(3) Diets containing calcium salt of alphaketoisocaproate (KIC).\n^(1) Statistical analysis: *designates p < .05, a significant\n^(2) Average daily (24 hrs.) gain (kilograms).\n^(3) Kilograms feed per kilogram weight gain.\n^(4) Amount of wool in grams.\n^(5) Amount of back fat in inches.\n^(6) Amount of lean meat in kilograms.\nas §3"}, "[3]": {"parameters": "species or system pigs", "conditions": "pig, in vivo", "from_the_text": "In experiment 1, sixteen female pigs weighing 20-30 kg were used. Seven days before study, catheters were surgically placed in the right atria for blood sampling. Animals were housed in individual cages during the recovery period and had free access to water. Preceding the experiment, animals were fed twice daily a basal diet (2% of body weight per feeding). The basal diet consisted of a corn-soybean mix, adequate in all minerals and vitamins and containing approximately 14% crude protein. Test meals were formulated by additions to a basal diet. Five animals received the basal diet (control); five animals received the leucine meal, which had 2% leucine added to the basal diet; and six animals received the KIC diet, which had 2% KIC (sodium salt equivalent to 1.7% free acid) added to the basel diet. Studies were begun between 0800 and 0900 h after a 24-hr fast. Basal blood samples were taken at -20, -10 and -5 min. Animals were then offered 100 g of their respective test meal (time 0). Pigs were included in the study only if they consumed the entire meal in the first 20 min. Blood was sampled every 30 min from 120 to 240 min. Plasma was separated, Trasylol (FBA Pharmaceuticals, New York, NY) added (50 ul/ml), and plasma stored at -70 C. until analyzed.\nCortisol was measured by coated tube kits (Gammacoat, Travenol-Genetech Diagnostics, Cambridge, MA). Leucine and KIC were measured by high pressure liquid chromatography. Crystalline leucine was obtained from Sigma Chemical (St. Louis, MO) and KIC-sodium was obtained from SOBAC (Paris, France). Statistical analysis of the individual pig responses was conducted on mean plasma concentrations before the meal (-20 to 0 min) and after the meal (120 to 240 min). When the overall treatment F-value was significant, differences between individual treatments were determined using the pooled SEM and a T-test."}}, "data": [{"smiles": "CC(C)CC(=O)C(=O)O", "note": "[KIC, alpha-ketoisocaproate]", "values": [{"measurement": "CHOLESTEROL PLASMA: amount of cholesterol in plasma", "setting": "[1]; Trial 1, CGM diet, 1% KIC (0%: 33)", "value": 32, "unit": "ng/mL"}, {"measurement": "CHOLESTEROL TISSUE: amount of cholesterol in lean tissue", "setting": "[1]; Trial 1, CGM diet, 1% KIC (0%: 40)", "value": 32, "unit": "ng/mg"}, {"measurement": "CHOLESTEROL PLASMA: amount of cholesterol in plasma", "setting": "[1]; Trial 1, SBM diet, 1% KIC (0%: 32)", "value": 23, "unit": "ng/mL"}, {"measurement": "CHOLESTEROL TISSUE: amount of cholesterol in lean tissue", "setting": "[1]; Trial 1, SBM diet, 1% KIC (0%: 80)", "value": 44, "unit": "ng/mg"}, {"measurement": "CHOLESTEROL: lean tissue", "setting": "[1]; Trial 2, CGM diet, 1% KIC (0%: 92.2), * p<.05", "value": 81.2, "unit": "ng/mg"}, {"measurement": "CHOLESTEROL: lean tissue", "setting": "[1]; Trial 2, SBM diet, 1% KIC (0%: 75.2)", "value": 83.2, "unit": "ng/mg"}, {"measurement": "F/G: kilograms feed per kilogram weight gain", "setting": "[2]; Trial 1, CGM diet, 1% KIC (0%: 4.53), * p<.05", "value": 5.20}, {"measurement": "LEAN: amount of lean meat", "setting": "[2]; Trial 1, CGM diet, 1% KIC (0%: 5.9)", "value": 6.0, "unit": "kilograms"}, {"measurement": "WOOL: amount of wool", "setting": "[2]; Trial 1, CGM diet, 1% KIC (0%: .158), * p<.05", "value": ".167 grams"}, {"measurement": "BACK FAT: amount of back fat", "setting": "[2]; Trial 1, CGM diet, 1% KIC (0%: .20)", "value": ".18 inches"}, {"measurement": "ADG: average daily (24 hrs.) gain", "setting": "[2]; Trial 1, CGM diet, 1% KIC (0%: .37)", "value": ".30 kilograms"}, {"measurement": "F/G: kilograms feed per kilogram weight gain", "setting": "[2]; Trial 1, SBM diet, 1% KIC (0%: 5.04), * p<.05", "value": 4.82}, {"measurement": "LEAN: amount of lean meat", "setting": "[2]; Trial 1, SBM diet, 1% KIC (0%: 6.2)", "value": 6.8, "unit": "kilograms"}, {"measurement": "WOOL: amount of wool", "setting": "[2]; Trial 1, SBM diet, 1% KIC (0%: .176), * p<.05", "value": ".216 grams"}, {"measurement": "BACK FAT: amount of back fat", "setting": "[2]; Trial 1, SBM diet, 1% KIC (0%: .26)", "value": ".22 inches"}, {"measurement": "ADG: average daily (24 hrs.) gain", "setting": "[2]; Trial 1, SBM diet, 1% KIC (0%: .33)", "value": ".36 kilograms"}, {"measurement": "F/G: kilograms feed per kilogram weight gain", "setting": "[2]; Trial 2, CGM diet, 1% KIC (0%: 4.17)", "value": 4.35}, {"measurement": "LEAN: amount of lean meat", "setting": "[2]; Trial 2, CGM diet, 1% KIC (0%: 6.1)", "value": 5.8, "unit": "kilograms"}, {"measurement": "WOOL: amount of wool", "setting": "[2]; Trial 2, CGM diet, 1% KIC (0%: .262), * p<.05", "value": ".294 grams"}, {"measurement": "BACK FAT: amount of back fat", "setting": "[2]; Trial 2, CGM diet, 1% KIC (0%: .29)", "value": ".20 inches"}, {"measurement": "ADG: average daily (24 hrs.) gain", "setting": "[2]; Trial 2, CGM diet, 1% KIC (0%: .333), * p<.05", "value": ".308 kilograms"}, {"measurement": "F/G: kilograms feed per kilogram weight gain", "setting": "[2]; Trial 2, SBM diet, 1% KIC (0%: 4.76), * p<.05", "value": 4.17}, {"measurement": "LEAN: amount of lean meat", "setting": "[2]; Trial 2, SBM diet, 1% KIC (0%: 5.9)", "value": 5.4, "unit": "kilograms"}, {"measurement": "WOOL: amount of wool", "setting": "[2]; Trial 2, SBM diet, 1% KIC (0%: .213), * p<.05", "value": ".267 grams"}, {"measurement": "BACK FAT: amount of back fat", "setting": "[2]; Trial 2, SBM diet, 1% KIC (0%: .26)", "value": ".21 inches"}, {"measurement": "ADG: average daily (24 hrs.) gain", "setting": "[2]; Trial 2, SBM diet, 1% KIC (0%: .304), * p<.05", "value": ".339 kilograms"}, {"measurement": "Plasma KIC, Change", "setting": "[3]", "value": 56, "unit": "µM"}, {"measurement": "Plasma leucine, Change", "setting": "[3]", "value": 182, "unit": "µM"}, {"measurement": "plasma leucine concentration", "setting": "[3]", "value": "doubling"}, {"measurement": "Plasma KIC, Post", "setting": "[3]; 240 min", "value": 102, "unit": "µM"}, {"measurement": "Plasma leucine, Post", "setting": "[3]; 240 min", "value": 312, "unit": "µM"}]}]}
